The source of these data is patent US9474790B2, “Stable, protracted GLP-1/glucagon receptor co-agonists for medical use” (Novo Nordisk A/S, priority 2013, dated 2016).

The IC50 is the point on the concentration scale where inhibition reaches its midpoint.

Structures are written as SMILES. Numbered stars: 1 amine (or outer) side, 2 acyl side, 3 side chain; on linkers, the order of the positions; unused ones are H or OH. Square brackets hold non-standard residues; d marks the D form. Side chains are listed from the residue outwards. Peptide text beside a SMILES is read from it. * marks the point of attachment. C18 diacid = O=C(O)CCCCCCCCCCCCCCCCC(=O)*; γGlu = O=C(O)[C@H](CCC(=O)[*:2])N[*:1]; AEEA = NCCOCCOCC(=O)O; Aib = CC(C)(N)C(=O)O

A short description of data set [1]: Chemical stability assessment by RP-UPLC. Format: physicochemical. The settings on record: 333 μM, 8 mM phosphate buffer pH 7.3, 37° C. vs 5° C. The method, boiled down:
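Purity loss = (purity after 14 days at 5° C. minus that at 37° C.) relative to the 5° C. value, purity being main-peak area % by RP-UPLC with UV at 215 nm. Samples were 333 μM in 8 mM phosphate, pH 7.3; gradient adjusted for outlying retention times.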

A further data set concerns the target T1, human GLP-1 receptor (Homo sapiens, UniProt P43220).
T1 construct: expressed in transfected cells; host or cells: BHK cells (parent BHKTS13), clone FCW467-12A/KZ10-1, with CRE luciferase
Put plainly: GLP-1 receptor binding, 125I-GLP-1 displacement SPA on isolated membranes. The settings on record: displacement of 125I-GLP-1 from membranes; read-out: IC50 GLP-1R. The method, boiled down:
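SPA displacement of 125I-GLP-1(7-36)NH2 from membranes of BHK cells expressing human GLP-1 receptor, with WGA beads, in 50 mM HEPES, 5 mM EGTA, 5 mM MgCl2, 0.005% Tween 20, pH 7.4. Incubated 2 h at 30°C; IC50 by non-linear regression, run at ≤0.001% or 2.0% final serum albumin.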

T1 sequence (P43220 24-463): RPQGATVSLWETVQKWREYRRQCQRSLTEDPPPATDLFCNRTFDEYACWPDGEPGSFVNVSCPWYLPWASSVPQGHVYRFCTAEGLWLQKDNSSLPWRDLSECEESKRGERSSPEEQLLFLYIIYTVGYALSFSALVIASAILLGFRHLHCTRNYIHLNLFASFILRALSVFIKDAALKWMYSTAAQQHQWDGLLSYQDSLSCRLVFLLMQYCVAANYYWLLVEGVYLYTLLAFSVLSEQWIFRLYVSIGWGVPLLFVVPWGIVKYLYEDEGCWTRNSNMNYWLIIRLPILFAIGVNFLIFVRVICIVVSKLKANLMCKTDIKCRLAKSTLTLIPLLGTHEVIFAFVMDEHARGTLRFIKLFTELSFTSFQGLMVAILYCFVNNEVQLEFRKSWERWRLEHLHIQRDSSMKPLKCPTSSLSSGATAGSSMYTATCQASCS

Regarding `CC(C)C[C@H](NC(=O)[C@H](Cc1ccc(O)cc1)NC(=O)[C@H](CCCCN)NC(=O)[C@H](CO)NC(=O)[C@H](CC(C)C)NC(=O)[C@H](CC(=O)O)NC(=O)[C@H](CO)NC(=O)[C@@H](NC(=O)[C@H](Cc1ccccc1)NC(=O)[C@@H](NC(=O)CNC(=O)[C@H](CCC(N)=O)NC(=O)C(C)(C)NC(=O)[C@@H](N)Cc1c[nH]cn1)[C@@H](C)O)[C@@H](C)O)C(=O)N[C@@H](CCC(=O)O)C(=O)N[C@@H](CO)C(=O)N[C@@H](CCCNC(=N)N)C(=O)N[C@@H](CCCNC(=N)N)C(=O)N[C@@H](C)C(=O)N[C@@H](CCCNC(=N)N)C(=O)N[C@@H](CCC(=O)O)C(=O)N[C@@H](Cc1ccccc1)C(=O)N[C@H](C(=O)N[C@@H](CCC(N)=O)C(=O)N[C@@H](Cc1c[nH]c2ccccc12)C(=O)N[C@@H](CC(C)C)C(=O)N[C@@H](CC(C)C)C(=O)N[C@@H](CCCCNC(=O)COCCOCCNC(=O)COCCOCCNC(=O)CC[C@H](NC(=O)CC[C@H](NC(=O)CC[C@H](NC(=O)CCCCCCCCCCCCCCCCC(=O)O)C(=O)O)C(=O)O)C(=O)O)C(=O)N[C@H](C(N)=O)[C@@H](C)O)C(C)C` [Example 42, N^ε28-[2-[2-[2-[[2-[2-[2-[[(4S)-4-carboxy-4-[[(4S)-4-carboxy-4-[[(4S)-4-carboxy-4-(17-carboxyheptadecanoylamino)butanoyl]amino]butanoyl]amino]butanoyl]amino]ethoxy]ethoxy]acetyl]amino]ethoxy]ethoxy]acetyl]-[Aib2,Leu10,Glu15,Arg20,Glu21,Leu27,Lys28]-Glucagon amide] (H-H[Aib]QGTFTSDLSKYLESRRAREFVQWLLK([AEEA-AEEA-γGlu-γGlu-γGlu-C18 diacid])T-NH2; N-terminus assumed), the “Purity loss; 14 days at 37° C.” value in data set [1] came out at 3%. In addition, the half-maximal inhibitory concentration (IC50) at human GLP-1 receptor came out at 300 pM.

Take `CC(C)C[C@H](NC(=O)[C@H](Cc1ccc(O)cc1)NC(=O)[C@H](CCCCN)NC(=O)[C@H](CO)NC(=O)[C@H](CC(C)C)NC(=O)[C@H](CC(=O)O)NC(=O)[C@H](CO)NC(=O)[C@@H](NC(=O)[C@H](Cc1ccccc1)NC(=O)[C@@H](NC(=O)CNC(=O)[C@H](Cc1c[nH]cn1)NC(=O)C(C)(C)NC(=O)[C@@H](N)Cc1c[nH]cn1)[C@@H](C)O)[C@@H](C)O)C(=O)N[C@@H](CCC(=O)O)C(=O)N[C@@H](CO)C(=O)N[C@@H](CCCCN)C(=O)N[C@@H](CCCNC(=N)N)C(=O)N[C@@H](C)C(=O)N[C@@H](CCCNC(=N)N)C(=O)N[C@@H](CCC(=O)O)C(=O)N[C@@H](Cc1ccccc1)C(=O)N[C@H](C(=O)N[C@@H](CCC(N)=O)C(=O)N[C@@H](Cc1c[nH]c2ccccc12)C(=O)N[C@@H](CC(C)C)C(=O)N[C@@H](CC(C)C)C(=O)N[C@@H](CCCCNC(=O)CC[C@H](NC(=O)CC[C@H](NC(=O)CC[C@H](NC(=O)CCCCCCCCCCCCCCCCC(=O)O)C(=O)O)C(=O)O)C(=O)O)C(=O)N[C@H](C(N)=O)[C@@H](C)O)C(C)C` [Example 34, N^ε28-[(4S)-4-carboxy-4-[[(4S)-4-carboxy-4-[[(4S)-4-carboxy-4-(17-carboxyheptadecanoylamino)butanoyl]amino]butanoyl]amino]butanoyl]-[Aib2,His3,Leu10,Glu15,Lys17,Arg20,Glu21,Leu27,Lys28]-Glucagon amide] (H-H[Aib]HGTFTSDLSKYLESKRAREFVQWLLK([γGlu-γGlu-γGlu-C18 diacid])T-NH2; N-terminus assumed): the “Purity loss; 14 days at 37° C.” value in data set [1] came out at 5%. In addition, the half-maximal inhibitory concentration (IC50) on human GLP-1 receptor stood at 200 pM.
